According to US5281604A, “Angiotensin II receptor blocking 2,3,6-substituted quinazolinones” (American Cyanamid Company, priority 1993, dated 1994):
Values joined by “and” are separate entries in the source; they are usually repeats but may differ in a detail not shown here. Equal values may be shown once.

System: ANGIOTENSIN II (AII) VASOPRESSOR RESPONSE
Experiment: AII Challenge: blockade of the angiotensin II vasopressor response in conscious spontaneously hypertensive rats
Assay type: in vivo, rat (Male Okamoto-Aoki SHR)
Text: By administering a compound of this invention to a rat, and then challenging with angiotensin II, a blockage of the vasopressor response is realized.
Conscious Male Okamoto-Aoki SHR, 16-20 weeks old, weighing approximately 330 g are purchased from Charles River Labs (Wilmington, Mass.). Conscious rats are restrained in a supine position with elastic tape. The area at the base of the tail is locally anesthetized by subcutaneous infiltration with 2% procaine. The ventral caudal artery and vein are isolated, and a cannula made of polyethylene (PE) 10-20 tubing (fused together by heat) is passed into the lower abdominal aorta and vena cava, respectively. The cannula is secured, heparinized (1,000 I.U./ml), sealed and the wound is closed. The animals are placed in plastic restraining cages in an upright position. The cannula is attached to a Statham P23Db pressure transducer, and pulsatile blood pressure is recorded to 10-15 minutes with a Gould Brush recorder. (Chan et al., (Drug Development Res., 18:75-94, 1989).
Angiotensin II (human sequence, Sigma Chem. Co., St. Louis, Mo.) of 0.05 and 0.1 ug/kg i.v. is injected into all rats (predosing response). Then a test compound, vehicle or a known angiotensin II antagonist is administered i.v., i.p. or orally to each set of rats. The two doses of angiotensin II are given to each rat again at 30, 60, 90, 120, 180, 240 and 300 minutes post dosing the compound or vehicle. The vasopressor response of angiotensin II is measured for the increase in systolic blood pressure in mmHg. The percentage of antagonism or blockade of the vasopressor response of angiotensin II by a compound is calculated using the vasopressor response (increase in systolic blood pressure) of angiotensin II of each rat predosing the compound as 100%. A compound is considered active if at 30 mg/kg i.v. it antagonized at least 50% of the response.

[1] = 3 mg/kg i.v., AII 0.05 mcg/kg IV, 30 min post dose
[2] = 3 mg/kg i.v., AII 0.05 mcg/kg IV, 60 min post dose
[3] = 3 mg/kg i.v., AII 0.05 mcg/kg IV, 90 min post dose
[4] = 3 mg/kg i.v., AII 0.05 mcg/kg IV, 120 min post dose
[5] = 3 mg/kg i.v., AII 0.05 mcg/kg IV, 180 min post dose
[6] = 3 mg/kg i.v., AII 0.05 mcg/kg IV, 240 min post dose
[7] = 3 mg/kg i.v., AII 0.05 mcg/kg IV, 300 min post dose
[8] = 3 mg/kg i.v., AII 0.1 mcg/kg IV, 30 min post dose
[9] = 3 mg/kg i.v., AII 0.1 mcg/kg IV, 60 min post dose
[10] = 3 mg/kg i.v., AII 0.1 mcg/kg IV, 90 min post dose
[11] = 3 mg/kg i.v., AII 0.1 mcg/kg IV, 120 min post dose
[12] = 3 mg/kg i.v., AII 0.1 mcg/kg IV, 180 min post dose
[13] = 3 mg/kg i.v., AII 0.1 mcg/kg IV, 240 min post dose
[14] = 3 mg/kg i.v., AII 0.1 mcg/kg IV, 300 min post dose
[15] = 3 mg/kg p.o., AII 0.05 mcg/kg IV, 30 min post dose
[16] = 3 mg/kg p.o., AII 0.05 mcg/kg IV, 60 min post dose
[17] = 3 mg/kg p.o., AII 0.05 mcg/kg IV, 90 min post dose
[18] = 3 mg/kg p.o., AII 0.05 mcg/kg IV, 120 min post dose
[19] = 3 mg/kg p.o., AII 0.05 mcg/kg IV, 180 min post dose
[20] = 3 mg/kg p.o., AII 0.05 mcg/kg IV, 240 min post dose
[21] = 3 mg/kg p.o., AII 0.1 mcg/kg IV, 30 min post dose
[22] = 3 mg/kg p.o., AII 0.1 mcg/kg IV, 60 min post dose
[23] = 3 mg/kg p.o., AII 0.1 mcg/kg IV, 90 min post dose
[24] = 3 mg/kg p.o., AII 0.1 mcg/kg IV, 120 min post dose
[25] = 3 mg/kg p.o., AII 0.1 mcg/kg IV, 180 min post dose
[26] = 3 mg/kg p.o., AII 0.1 mcg/kg IV, 240 min post dose

## CCCCc1nc2ccc([C@H]3OC[C@H]4[C@@H]3ON3[C@@H]4CCC3(C)C)cc2c(=O)n1Cc1ccc(-c2ccccc2-c2nnn[nH]2)cc1 (relative stereo) [Example 7, (1α, 3aα, 8aβ, 8bα)-2-Butyl-6-(octahydro-6,6-dimethylfuro[3,4-d]pyrrolo[1,2-b]isoxazol-1-yl)-3-[[2'-(1H-tetrazol-5-yl)[1,1'-biphenyl]-4-yl]methyl]-4 (3H)-quinazolinone]
[1]
  % Inhibition: 91%
  Average Change: 4.5 mmHg
  Control Before AII (single rat): 245 mmHg and 214 mmHg
  Response After AII (single rat): 245 mmHg and 223 mmHg
  Response Change (single rat): 0 mmHg and 9 mmHg
[2]
  % Inhibition: 84%
  Average Change: 7.5 mmHg
  Control Before AII (single rat): 240 mmHg and 225 mmHg
  Response After AII (single rat): 255 mmHg and 225 mmHg
  Response Change (single rat): 15 mmHg and 0 mmHg
[3]
  % Inhibition: 89%
  Average Change: 5 mmHg
  Control Before AII (single rat): 235 mmHg
  Response After AII (single rat): 240 mmHg
  Response Change (single rat): 5 mmHg
[4]
  % Inhibition: 84%
  Average Change: 7.5 mmHg
  Control Before AII (single rat): 225 mmHg and 220 mmHg
  Response After AII (single rat): 235 mmHg and 225 mmHg
  Response Change (single rat): 10 mmHg and 5 mmHg
[5]
  % Inhibition: 79%
  Average Change: 10 mmHg
  Control Before AII (single rat): 225 mmHg and 215 mmHg
  Response After AII (single rat): 235 mmHg and 225 mmHg
  Response Change (single rat): 10 mmHg
[6]
  % Inhibition: 63%
  Average Change: 17.5 mmHg
  Control Before AII (single rat): 225 mmHg and 215 mmHg
  Response After AII (single rat): 235 mmHg and 240 mmHg
  Response Change (single rat): 10 mmHg and 25 mmHg
[7]
  % Inhibition: 74%
  Average Change: 12.5 mmHg
  Control Before AII (single rat): 235 mmHg and 210 mmHg
  Response After AII (single rat): 242 mmHg and 228 mmHg
  Response Change (single rat): 7 mmHg and 18 mmHg
[8]
  % Inhibition: 90%
  Average Change: 5 mmHg
  Control Before AII (single rat): 255 mmHg and 220 mmHg
  Response After AII (single rat): 260 mmHg and 225 mmHg
  Response Change (single rat): 5 mmHg
[9]
  % Inhibition: 86%
  Average Change: 7.5 mmHg
  Control Before AII (single rat): 250 mmHg and 215 mmHg
  Response After AII (single rat): 255 mmHg and 225 mmHg
  Response Change (single rat): 5 mmHg and 10 mmHg
[10]
  % Inhibition: 83%
  Average Change: 9 mmHg
  Control Before AII (single rat): 235 mmHg and 225 mmHg
  Response After AII (single rat): 238 mmHg and 240 mmHg
  Response Change (single rat): 3 mmHg and 15 mmHg
[11]
  % Inhibition: 86%
  Average Change: 7.5 mmHg
  Control Before AII (single rat): 235 mmHg and 215 mmHg
  Response After AII (single rat): 240 mmHg and 225 mmHg
  Response Change (single rat): 5 mmHg and 10 mmHg
[12]
  % Inhibition: 72%
  Average Change: 14.5 mmHg
  Control Before AII (single rat): 235 mmHg and 205 mmHg
  Response After AII (single rat): 245 mmHg and 224 mmHg
  Response Change (single rat): 10 mmHg and 19 mmHg
[13]
  % Inhibition: 81%
  Average Change: 10 mmHg
  Control Before AII (single rat): 235 mmHg and 225 mmHg
  Response After AII (single rat): 245 mmHg and 235 mmHg
  Response Change (single rat): 10 mmHg
[14]
  % Inhibition: 57%
  Average Change: 22.5 mmHg
  Control Before AII (single rat): 230 mmHg and 215 mmHg
  Response After AII (single rat): 250 mmHg and 240 mmHg
  Response Change (single rat): 20 mmHg and 25 mmHg
[15]
  % Inhibition: 23%
  Average Change: 29 mmHg
  Control Before AII (single rat): 215 mmHg and 205 mmHg
  Response After AII (single rat): 248 mmHg and 230 mmHg
  Response Change (single rat): 33 mmHg and 25 mmHg
[16]
  % Inhibition: 27%
  Average Change: 27.5 mmHg
  Control Before AII (single rat): 230 mmHg and 195 mmHg
  Response After AII (single rat): 255 mmHg and 225 mmHg
  Response Change (single rat): 25 mmHg and 30 mmHg
[17]
  % Inhibition: 31%
  Average Change: 26 mmHg
  Control Before AII (single rat): 210 mmHg and 193 mmHg
  Response After AII (single rat): 245 mmHg and 210 mmHg
  Response Change (single rat): 35 mmHg and 17 mmHg
[18]
  % Inhibition: 27%
  Average Change: 27.5 mmHg
  Control Before AII (single rat): 210 mmHg and 195 mmHg
  Response After AII (single rat): 245 mmHg and 215 mmHg
  Response Change (single rat): 35 mmHg and 20 mmHg
[19]
  % Inhibition: 0%
  Average Change: 37.5 mmHg
  Control Before AII (single rat): 210 mmHg and 190 mmHg
  Response After AII (single rat): 255 mmHg and 220 mmHg
  Response Change (single rat): 45 mmHg and 30 mmHg
[20]
  % Inhibition: 0%
  Average Change: 37.5 mmHg
  Control Before AII (single rat): 210 mmHg and 190 mmHg
  Response After AII (single rat): 260 mmHg and 215 mmHg
  Response Change (single rat): 50 mmHg and 25 mmHg
[21]
  % Inhibition: 6%
  Average Change: 40 mmHg
  Control Before AII (single rat): 215 mmHg and 200 mmHg
  Response After AII (single rat): 260 mmHg and 235 mmHg
  Response Change (single rat): 45 mmHg and 35 mmHg
[22]
  % Inhibition: 6%
  Average Change: 40 mmHg
  Control Before AII (single rat): 215 mmHg and 195 mmHg
  Response After AII (single rat): 255 mmHg and 235 mmHg
  Response Change (single rat): 40 mmHg
[23]
  % Inhibition: 18%
  Average Change: 35 mmHg
  Control Before AII (single rat): 215 mmHg and 195 mmHg
  Response After AII (single rat): 260 mmHg and 220 mmHg
  Response Change (single rat): 45 mmHg and 25 mmHg
[24]
  % Inhibition: 24%
  Average Change: 32.5 mmHg
  Control Before AII (single rat): 205 mmHg and 190 mmHg
  Response After AII (single rat): 240 mmHg and 220 mmHg
  Response Change (single rat): 35 mmHg and 30 mmHg
[25]
  % Inhibition: 12%
  Average Change: 37.5 mmHg
  Control Before AII (single rat): 215 mmHg and 180 mmHg
  Response After AII (single rat): 260 mmHg and 210 mmHg
  Response Change (single rat): 45 mmHg and 30 mmHg
[26]
  % Inhibition: 9%
  Average Change: 38.5 mmHg
  Control Before AII (single rat): 213 mmHg and 185 mmHg
  Response After AII (single rat): 265 mmHg and 210 mmHg
  Response Change (single rat): 52 mmHg and 25 mmHg
